Counter-ions that a name gives are not always drawn. Blank lines part the entries; values can stand above or below the compound they belong to. Active and inactive are the calls of the source.
Key:
Kallikrein-7 = Kallikrein-7 (Homo sapiens, UniProt P49862); assay: Fluorescence Intensity-based biochemical primary high throughput dose response assay to identify activators of kallikrein-7 (K7) zymogen.
[1] = biological target: T1, Corticotropin-releasing factor receptor 2/Corticotropin-releasing factor-binding protein (Homo sapiens, UniProt P24387+Q13324); assay: Dose Response confirmation of uHTS hits for small molecule antagonists of the CRF-binding protein and CRF-R2 receptor complex.; format: functional; conditions: read-out: IC50_Mean
T1 sequence (Q13324 whole entry): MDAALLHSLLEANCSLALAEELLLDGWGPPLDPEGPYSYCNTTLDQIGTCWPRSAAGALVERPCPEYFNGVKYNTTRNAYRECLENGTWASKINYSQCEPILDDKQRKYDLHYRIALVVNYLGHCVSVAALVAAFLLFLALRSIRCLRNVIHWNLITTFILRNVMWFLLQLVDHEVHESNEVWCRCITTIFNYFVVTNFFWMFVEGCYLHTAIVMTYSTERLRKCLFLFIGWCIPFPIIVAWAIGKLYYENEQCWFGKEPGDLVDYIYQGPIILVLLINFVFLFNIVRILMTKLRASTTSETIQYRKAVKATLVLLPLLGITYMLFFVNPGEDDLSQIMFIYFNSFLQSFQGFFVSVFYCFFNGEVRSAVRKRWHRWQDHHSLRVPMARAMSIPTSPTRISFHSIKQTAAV
T1 sequence (P24387 whole entry): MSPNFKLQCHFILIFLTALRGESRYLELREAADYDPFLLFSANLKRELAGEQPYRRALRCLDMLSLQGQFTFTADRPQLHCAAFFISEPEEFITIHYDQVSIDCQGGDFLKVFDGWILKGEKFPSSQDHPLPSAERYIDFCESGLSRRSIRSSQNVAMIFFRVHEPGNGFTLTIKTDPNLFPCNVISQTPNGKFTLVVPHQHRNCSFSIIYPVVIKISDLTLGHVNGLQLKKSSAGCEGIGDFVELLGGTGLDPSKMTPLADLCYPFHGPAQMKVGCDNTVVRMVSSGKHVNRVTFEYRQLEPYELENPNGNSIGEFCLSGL

[2] = biological target: T1, Corticotropin-releasing factor receptor 2/Corticotropin-releasing factor-binding protein; assay: activators of CRF receptor 2 with binding protein – uHTS hits, confirmation (AID 602473); format: functional; conditions: read-out: EC50_Mean
[3] = CRF-BP/CRF-R2 complex antagonists, dose response, cell-based, uHTS hits, 384-well (AID 651639); format: functional, Homo sapiens; conditions: read-out: IC50_Mean
Protein Tat = biological target: T2, Protein Tat (Human immunodeficiency virus type 1 group M subtype B (isolate HXB2)(HIV-1), UniProt P04608); format: functional;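 note: tat binding to TAR RNA read out by fluorescence polarization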
T2 sequence (P04608 whole entry): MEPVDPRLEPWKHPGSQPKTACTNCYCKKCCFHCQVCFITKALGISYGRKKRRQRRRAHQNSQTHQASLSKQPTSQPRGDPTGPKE

[4] = biological target: T3, Polyadenylate-binding protein 1 (Homo sapiens, UniProt P11940); assay: PABP1 MLLE–PAM2 interaction inhibitors, dose response, miRNA deadenylation inhibitor project, biochemical, fluorescence polarization, Cy5-PAM2 peptide, secondary (AID 602260); format: functional; conditions: read-out: IC50_Mean
T3 sequence (P11940 whole entry): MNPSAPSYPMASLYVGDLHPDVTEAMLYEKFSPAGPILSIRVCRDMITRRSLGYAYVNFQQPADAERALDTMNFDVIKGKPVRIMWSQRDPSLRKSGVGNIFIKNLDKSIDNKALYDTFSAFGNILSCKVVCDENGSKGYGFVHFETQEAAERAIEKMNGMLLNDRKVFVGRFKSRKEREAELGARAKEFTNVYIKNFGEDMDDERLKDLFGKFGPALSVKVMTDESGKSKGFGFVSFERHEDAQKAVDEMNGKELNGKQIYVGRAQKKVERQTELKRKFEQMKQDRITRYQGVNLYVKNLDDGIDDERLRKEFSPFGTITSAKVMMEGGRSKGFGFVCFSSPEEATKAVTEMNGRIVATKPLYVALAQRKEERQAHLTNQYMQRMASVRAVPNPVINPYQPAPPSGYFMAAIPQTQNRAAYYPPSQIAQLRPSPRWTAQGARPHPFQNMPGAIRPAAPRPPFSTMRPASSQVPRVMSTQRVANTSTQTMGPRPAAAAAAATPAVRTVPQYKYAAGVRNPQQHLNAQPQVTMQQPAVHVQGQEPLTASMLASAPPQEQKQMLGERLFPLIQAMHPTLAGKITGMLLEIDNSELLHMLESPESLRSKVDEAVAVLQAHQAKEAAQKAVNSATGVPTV

[5] = biological target: T3, Polyadenylate-binding protein 1; assay: PABP1 MLLE–PAM2 binding inhibitor potency, dose response, biochemical, fluorescence polarization, FITC-PAM2 peptide (AID 602259); format: functional; conditions: read-out: IC50_Mean
[6] = biological target: T4, Hepatocyte nuclear factor 4-alpha (Homo sapiens, UniProt P41235); format: functional, cell-based;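 note: biochemical luminescence-based dose-response counterscreen measuring inhibition of HNF4 dimerization, run alongside a screen for blockers of ABHD5–perilipin-5 interaction; split luciferase complementation of HNF4 fusion proteins in cell lysate measuring dimerization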
T4 sequence (P41235 whole entry): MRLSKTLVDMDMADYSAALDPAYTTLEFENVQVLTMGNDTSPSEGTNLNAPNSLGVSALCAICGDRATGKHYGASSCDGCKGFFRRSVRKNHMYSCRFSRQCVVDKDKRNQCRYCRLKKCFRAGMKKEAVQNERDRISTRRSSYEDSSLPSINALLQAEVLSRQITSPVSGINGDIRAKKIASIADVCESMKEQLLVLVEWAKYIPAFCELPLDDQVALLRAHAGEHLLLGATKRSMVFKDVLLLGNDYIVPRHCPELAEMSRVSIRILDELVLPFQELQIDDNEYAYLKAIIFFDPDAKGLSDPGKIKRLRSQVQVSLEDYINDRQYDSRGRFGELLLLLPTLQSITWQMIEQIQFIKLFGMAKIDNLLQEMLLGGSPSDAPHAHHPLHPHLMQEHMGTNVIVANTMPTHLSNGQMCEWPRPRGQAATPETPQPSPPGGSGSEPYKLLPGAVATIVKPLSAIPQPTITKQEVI

[7] = THP-1 cell cytotoxicity, dose response, cytotoxicity control for Vif-APOBEC3G degradation inhibitor project, THP-1 cells (AID 1117359); format: functional; conditions: Human immunodeficiency virus 1, THP-1
[8] = inhibitors of PGC1a acetylation in cells, dose response, cell-based, cherry-picked samples (AID 720514); format: functional;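 note: potency may reflect raised or lowered acetylation signal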
[9] = growth suppression of PTEN-null colon cells, dose response, cell-based, HCT116 PTEN knockout (AID 1047); format: functional;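 note: HCT116 colon tumor cells with PTEN knocked out; cells exposed to compound for 60 hours before readout; potency for loss of cell viability measured by luminescence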
[10] = growth suppression of beta-catenin-knockout colon cells, dose response, cell-based, HCT116, human colon tumor (AID 1045); format: functional;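 note: HCT116 colon tumor cells with beta catenin knocked out; cells exposed to compound for 60 hours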
[11] = biological target: Photoreceptor-specific nuclear receptor (Homo sapiens, UniProt Q9Y5X4); format: functional, cell-based;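 note: CHO-S cells with Gal4-NCOR and VP16-NR2E3 two-hybrid luciferase reporter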
Photoreceptor-specific nuclear receptor, sequence (Q9Y5X4 whole entry, the tested form may be a part): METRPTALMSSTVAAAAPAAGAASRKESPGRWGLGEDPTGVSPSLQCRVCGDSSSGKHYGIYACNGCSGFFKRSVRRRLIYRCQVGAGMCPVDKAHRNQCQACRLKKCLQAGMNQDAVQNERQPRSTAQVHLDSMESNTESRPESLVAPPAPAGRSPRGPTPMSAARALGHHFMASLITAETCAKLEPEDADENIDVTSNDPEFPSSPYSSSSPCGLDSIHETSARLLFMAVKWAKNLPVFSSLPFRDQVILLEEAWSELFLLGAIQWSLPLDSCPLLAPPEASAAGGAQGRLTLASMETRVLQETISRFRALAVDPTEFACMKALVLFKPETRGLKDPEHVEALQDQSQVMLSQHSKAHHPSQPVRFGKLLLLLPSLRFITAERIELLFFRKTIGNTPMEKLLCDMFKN

[12] = A549 cell cytotoxicity, dose response, cytotoxicity control, plate reader, cherry-pick, antagonist series (AID 743412); format: functional, cell-based
[13] = LGR2 antagonists, dose response, cell-based, HEK293, CRE-luciferase reporter, cherry pick, set 2 (AID 743343); format: functional;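 note: transfected cells were stimulated with diluted bursicon conditioned medium after compound addition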
[14] = MC4R antagonists, dose response, counter-screen for LGR2 antagonist project, cell-based, plate reader, cherry pick (AID 743444); format: functional;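 note: transfected HEK 293 cells stimulated with alpha-MSH peptide; potency of inhibitors of the alpha-MSH evoked signal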
[15] = HEK293 cell cytotoxicity, dose response, cytotoxicity control, plate reader, cherry-picked samples (AID 743446); format: functional, cell-based
Cytochrome P450 1A2 = biological target: T5, Cytochrome P450 1A2 (Homo sapiens, UniProt P05177);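 note: PubChem cytochrome P450 panel assay, CYP1A2 panel member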
T5 sequence (P05177 whole entry): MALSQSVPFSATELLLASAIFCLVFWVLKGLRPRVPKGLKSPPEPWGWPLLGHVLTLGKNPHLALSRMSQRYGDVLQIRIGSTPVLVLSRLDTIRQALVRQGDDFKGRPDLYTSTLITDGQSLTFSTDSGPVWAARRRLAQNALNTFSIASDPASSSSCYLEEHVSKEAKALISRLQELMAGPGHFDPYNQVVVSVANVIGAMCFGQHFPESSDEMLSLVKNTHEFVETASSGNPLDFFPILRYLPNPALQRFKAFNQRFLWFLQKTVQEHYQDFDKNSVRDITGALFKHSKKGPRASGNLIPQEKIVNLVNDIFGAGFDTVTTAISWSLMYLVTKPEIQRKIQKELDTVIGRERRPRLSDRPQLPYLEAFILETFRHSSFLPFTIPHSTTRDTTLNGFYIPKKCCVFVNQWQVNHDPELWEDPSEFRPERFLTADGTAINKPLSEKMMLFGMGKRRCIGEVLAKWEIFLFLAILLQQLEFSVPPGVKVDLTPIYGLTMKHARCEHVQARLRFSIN

Kallikrein-7, sequence (P49862 whole entry): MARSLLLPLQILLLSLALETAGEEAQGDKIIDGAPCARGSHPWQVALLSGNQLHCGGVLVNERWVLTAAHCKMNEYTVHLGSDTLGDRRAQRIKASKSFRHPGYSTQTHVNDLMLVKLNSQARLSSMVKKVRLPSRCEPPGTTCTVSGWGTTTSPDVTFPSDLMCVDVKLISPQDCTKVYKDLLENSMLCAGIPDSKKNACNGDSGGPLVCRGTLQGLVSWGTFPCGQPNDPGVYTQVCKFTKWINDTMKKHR

EC50 (Kallikrein-7): > 69.5 µM (inactive)
Compound: Cc1cc(N2CCCC2)nc2ccc(NC(=S)NCCCOC(C)C)cc12

EC50 (Kallikrein-7): > 69.5 µM (inactive)
Compound: Cc1cccc(C)c1NC(=O)C(c1ccccc1)N1CC(=O)Nc2ccccc21 (configuration not stated)

IC50 [1]: 10.3 µM (active)
EC50 [2]: > 53 µM (inactive)
IC50 [3]: 14.4 µM (active)
Compound: Cc1ccc(S(=O)(=O)N(CC(=O)Nc2ccccc2C(=O)O)c2ccc(Cl)cc2)cc1

IC50 (Protein Tat): > 100 µM (active)
Compound: O=C(c1cc2n(n1)C(C(F)(F)F)CC(c1ccco1)N2)N1CCc2ccccc2C1 (configuration not stated)

IC50 (Protein Tat): > 100 µM (active)
Compound: CC(C)CCN1CCN(Cc2cccn2-c2cccnc2)CC1CCO (configuration not stated)

IC50 [4]: > 66 µM (inactive)
IC50 [5]: > 66 µM (inactive)
IC50 [6]: 0.814 µM (active)
Compound: CCOC1=CC2=C(C(=O)C(Cl)=CC2=O)[C@@H]2CN(S(=O)(=O)c3ccc(C)cc3)[C@@H](c3ccccc3)[C@H]12

Compound: COc1cc(C)c(C2NC(=O)c3ccccc3N2)cc1C (configuration not stated)
CC50 [7]: 2.86 µM (active)

IC50 [6]: 3.64 µM (active)
Compound: Cc1cccc(C)c1NC(=O)C(c1ccnc2ccccc12)n1c(=O)c(-c2ccco2)nc2ccccc21 (configuration not stated)

Compound: O=C1C=CCCN1C(=O)/C=C/c1ccccc1Cl
AC50 [8]: 0.617 µM (active)

Compound: Cc1ccc(C#N)c(SCc2nnc(-c3ccc(Cl)cc3)o2)n1
EC50 [9]: 8.1 µM (active)
EC50 [10]: 15.7 µM (active)
IC50 [11]: 1.47 µM (active)
AC50 [12]: 30.9 µM (active)
AC50 [13]: 0.181 µM (active)
AC50 [14]: 0.209 µM (active)
AC50 [15]: > 52 µM (inactive)

IC50 [6]: 10.9 µM (inactive)
AC50 (Cytochrome P450 1A2): 12.6 µM (inconclusive)
Compound: CCN(CC)CCOCCOC(=O)C1(c2ccccc2)CCCC1 [CARBETAPENTANE CITRATE]
